Where a name gives a salt, the structure may show the parent alone.
Experiments:
[1] = system: IE2 negative feedback (MIEP-IE2-IRES-GFP construct, LM2ig); test: IE2 negative feedback reporter: cells harboring LM2ig (MIEP-IE2-IRES-GFP), GFP by flow cytometry; assay type: cell-based, human CMV (hCMV); conditions: for quiescent MIEP-driven expression in a reporter cell line: 20 μM Hoechst 33258, FACS, FIG. 4 upper panel; for production of IE2, as measured by GFP expression (GFP mean fluorescence intensity; GFP-MFI): ARPE-19 cells stably transduced with LM2ig, FIG. 1, FIG. 2; for increase in the number of GFP-positive cells: Hoechst 33342 0.25 μM, VPA concentrations as in Teng et al. (2012), cells harboring LM2ig, FIG. 6
Method: (§1) MRCS fibroblasts and life-extended human foreskin fibroblasts (HFFs) (Bresnahan and Shenk, 2000) were maintained in Dulbecco's Modified Eagle's Medium (DMEM) supplemented with 10% fetal bovine serum (FBS) and 50 U/ml penicillin-streptomycin at 37° C. and 5% CO2 in a humidified incubator. ARPE-19 cells were maintained in a 1:1 mixture of DMEM/F-12 (Mediatech Inc.) with 10% FBS (HyClone) and 50 U/ml Penicillin-Streptomycin (Mediatech Inc.). Cells were treated with a final concentration of 1 mM valproic acid (VPA) (Calbiochem™), resuspended in dimethylsulfoxide, for approximately 24 hours before imaging. Cells were treated with a final concentration of 400 nM TSA (Sigma-Aldrich) resuspended in dimethylsulfoxide, for 20-24 hours, a final concentration of 10 ng/mL TNF-α (Sigma-Aldrich) resuspended in phosphate-buffered saline (PBS), or a final concentration of 1 mM VPA (Calbiochem) for approximately 24 hours before imaging.
(§2) Standard lentiviral cloning was used to create minimal major immediate early (MIE) circuits (Dull et al., 1998). The minimal MIEP-IE2-GFP and MIEP-GFP circuits are driven by a full-length ˜2.5 kb MIE promoter-enhancer (MIEP) that spans the sequence from the MIEP modulator at the 5′ edge to the junction of immediate early (IE) exons 1 and 2. The MIEP was polymerase chain reaction (PCR)-cloned from AD169 into pLEIGW in place of the EF1a promoter. This full-length MIEP drives an IE2-IRES-GFP or mCherry-IRES-GFP cassette. IE2 was cloned from pRSV-IE86 (a gift from Jay Nelson). ARPE-19 cells were infected and fluorescence-activated cell sorter (FACS) sorted for green fluorescent protein (GFP) fluorescence to create stably expressing cell lines. Cells were treated with Trichostatin-A (TSA) for 17 hours, and GFP expression was quantified by flow cytometry. Live cells were gated by forward-versus-side scattering on a FacsCalibur™ cytometer (BD Biosciences) and mean fluorescence intensity recorded. At least 20,000 live cells were recorded for each experiment and data was analyzed in FlowJo™ (Treestar Inc.).
See WO 2014/127148 for descriptions of MIEP-IE2-reporter constructs. For example, LM2ig construct is depicted in FIG. 7 of WO 2014/127148.

[2] = system: ARPE-19 cells stably transduced with LM2ig; test: Viability of ARPE-19 cells stably transduced with LM2ig; assay type: cell-based; conditions: FIG. 1, FIG. 2
Method: as §1, §2

[3] = system: latent CMV in N-Tera2 cells; test: N-Tera2 latency assay (reactivation of latent CMV); assay type: cell-based, human CMV (hCMV); conditions: FIG. 4 lower panel
Method: Reactivation of latent CMV in N-Tera2 cells was conducted as previously described in (Meier, 2001).

[4] = system: IE2 negative feedback (LM2ig "low" cells); test: LM2ig "low" drug screen (4 day induction, high throughput flow cytometry); assay type: cell-based, human CMV (hCMV); conditions: induction period of 4 days, FIG. 9
Method: LM2ig “low” cells (˜0% GFP positive before induction) were treated with agents in duplicate for an induction period of 4 days. During this induction period, the cell culture medium was not changed; images were taken every day for 4 days. On the final day, high throughput flow cytometry was carried out on FACS IntelliCyt. Agents tested were: Hoechst 33258, Hoechst 33342, VPA, TSA, TNF-α, hexamethylene bisacetamide (HMBA), phorbol myristate acetate (PMA), neotroposin, distamycin, DAPI, gemcitabine, prednisolone, suberanilohydroxamic acid (SAHA), (2E)-N-hydroxy-3-[4-({[2-(2-methyl-1H-indol-3-yl)ethyl]amino}methyl)phenyl]acrylamide (panobinostat), thapsigargin, JQ1, prostratin, dimizane acetate, pentamidine, or bendamustine.

Structure (SMILES) | quiescent MIEP-driven expression in a reporter cell line ([1]; ARPE-19 cells harboring LM2ig) | number of GFP-positive cells ([1]; ARPE-19 cells harboring LM2ig, Hoechst 33258 with or without VPA, FIG. 7) | mean fluorescence intensity (MFI) ([1]; ARPE-19 cells harboring LM2ig, Hoechst 33258 with or without VPA, FIG. 8) | production of IE2, as measured by GFP expression (GFP mean fluorescence intensity; GFP-MFI) [1] | increase in the number of GFP-positive cells [1] | cell viability / cytotoxicity [2] | reactivation of latent CMV [3] | percent GFP-positive cells ([1]; 0.25 μM Hoechst 33342, 24 hours, cells with LM2ig construct, FIG. 5) | breaking of the IE2 negative feedback circuit ([1]; 24-28 hour exposure) | reactivation of the LM2ig minimal circuit ([1]; Hoechst 33258: after 24 hours) | breaking of the minimal LM2ig circuit ([1]; after 24 hours, alone) | breaking of the circuit and reactivation of the promoter from an off (silenced) state ([1]; long-term (e.g., 8-10 days) exposure) | breaking of the IE2 negative feedback (geometric mean of GFP) [4]
CCCC(CCC)C(=O)O [VPA, valproic acid, reference compound] | not | induced an increase | did not substantially increase MFI | increased IE2 expression | 1.69 fold | not cytotoxic | not |  |  |  |  |  | 
CC(/C=C/C(=O)NO)=C\[C@@H](C)C(=O)c1ccc(N(C)C)cc1 [TSA, (R,2E,4E)-7-(4-(dimethylamino)phenyl)-N-hydroxy-4,6-dimethyl-7-oxohepta-2,4-dienamide, reference compound] | not |  |  | increased IE2 expression |  | not cytotoxic | not |  |  |  |  |  | 
CCOc1ccc(-c2nc3ccc(-c4nc5ccc(N6CCN(C)CC6)cc5[nH]4)cc3[nH]2)cc1 [Hoechst 33342, 2′-[4-ethoxyphenyl]-5-[4-methyl-1-piperazinyl]-2,5′-bi-1H-benzimidazole trihydrochloride trihydrate] |  |  |  |  | 3.49 fold |  |  | increased | breaks the IE2 negative feedback circuit | strongly reactivates | does not break | breaks the circuit and reactivates the promoter | specifically break the IE2 negative feedback
